These results are taken from PubChem BioAssay AID256 (DTP/NCI, 2004).

Several values for one entry are separate records, joined by “and”; a condition that tells them apart may be missing. Identical values can stand only once. Inconclusive results and toxic doses are left out.

The assay deals with CD2F1 mice, L1210 leukemia ip, survival T/C. Nature of the assay: NCI In Vivo Anticancer Drug Screen. Data for tumor model L1210 Leukemia (intraperitoneal) in CD2F1 (CDF1) mice. As to conditions: endpoint: mean survival time, higher = longer survival. In short, it runs like this:
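Ratio T/C, where T is the treated-group value and C the vehicle-dosed control value, from mice implanted with a transplantable tumor.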

The mark [1] stands for this setting: dose: 100.0 mg/kg/injection, schedule: Q04DX003 (ip), vehicle: saline with Tween-80.
[2] abbreviates: dose: 200.0 mg/kg/injection, schedule: Q04DX003 (ip), vehicle: saline with Tween-80.
The mark [3] stands for this setting: dose: 400.0 mg/kg/injection, schedule: Q04DX003 (ip), vehicle: saline with Tween-80.

Turning to `O=[N+]([O-])c1cc(C(F)(F)F)cc([N+](=O)[O-])c1Cl`, the T/C is 98 % of control and 101 % of control (dose: 1.56 mg/kg/injection, schedule: Q04DX003 (ip), vehicle: Klucel (hydroxypropylcellulose) (HPC)); 98 % of control and 102 % of control (dose: 3.12 mg/kg/injection, schedule: Q04DX003 (ip), vehicle: Klucel (hydroxypropylcellulose) (HPC)); 95 % of control and 98 % of control (dose: 6.25 mg/kg/injection, schedule: Q04DX003 (ip), vehicle: Klucel (hydroxypropylcellulose) (HPC)); 90 % of control and 98 % of control (dose: 12.5 mg/kg/injection, schedule: Q04DX003 (ip), vehicle: Klucel (hydroxypropylcellulose) (HPC)).

Regarding `Cc1[nH]nc2c(=O)n(C)cnc12`, the T/C was 103 % of control (dose: 12.5 mg/kg/injection, schedule: Q01DX005 (ip), vehicle: water); 104 % of control (dose: 25.0 mg/kg/injection, schedule: Q01DX005 (ip), vehicle: water); 98 % of control (dose: 50.0 mg/kg/injection, schedule: Q01DX005 (ip), vehicle: water); 92 % of control (dose: 100.0 mg/kg/injection, schedule: Q01DX005 (ip), vehicle: water); 95 % of control (dose: 200.0 mg/kg/injection, schedule: Q01DX005 (ip), vehicle: water).

As for `O=C1NC(O)c2ccccc2O1` (stereo not given), the T/C was 101 % of control (dose: 12.5 mg/kg/injection, schedule: Q01DX009 (ip), vehicle: saline with Tween-80); 95 % of control (dose: 12.5 mg/kg/injection, schedule: Q01DX009 (ip), vehicle: suspension in saline); 96 % of control (dose: 25.0 mg/kg/injection, schedule: Q01DX009 (ip), vehicle: saline with Tween-80); 97 % of control (dose: 25.0 mg/kg/injection, schedule: Q01DX009 (ip), vehicle: suspension in saline); 98 % of control (dose: 50.0 mg/kg/injection, schedule: Q01DX009 (ip), vehicle: saline with Tween-80); 104 % of control (dose: 50.0 mg/kg/injection, schedule: Q01DX009 (ip), vehicle: suspension in saline). For the same molecule, the T/C was 101 % of control and 108 % of control (dose: 100.0 mg/kg/injection, schedule: Q01DX009 (ip), vehicle: saline with Tween-80); 101 % of control (dose: 100.0 mg/kg/injection, schedule: Q01DX009 (ip), vehicle: suspension in saline); 115 % of control and 106 % of control (dose: 200.0 mg/kg/injection, schedule: Q01DX009 (ip), vehicle: saline with Tween-80); 119 % of control (dose: 200.0 mg/kg/injection, schedule: Q01DX009 (ip), vehicle: suspension in saline); 95 % of control (dose: 400.0 mg/kg/injection, schedule: Q01DX009 (ip), vehicle: suspension in saline).

Take `CC(=O)Oc1c(Br)c(-c2cc([N+](=O)[O-])c(C)c([N+](=O)[O-])c2C)c(OC(C)=O)c(Br)c1-c1cc([N+](=O)[O-])c(C)c([N+](=O)[O-])c1C`: the T/C was 93 % of control under setting [1], 93 % of control under setting [2] and 87 % of control under setting [3].

In the case of `O=C(Nc1cc2ccccc2o1)O/N=C/c1ccccn1`, the T/C is, setting by setting: under setting [1], 92 % of control; under setting [2], 92 % of control; under setting [3], 86 % of control.

Regarding `Cc1cn(C2CC(O)C(COC(c3ccccc3)(c3ccccc3)c3ccc(OCC(=O)O)cc3)O2)c(=O)[nH]c1=O` (stereo not given), the T/C by setting is: (dose: 12.5 mg/kg/injection, schedule: Q01DX005 (ip), vehicle: distilled water + Tween-80) 100 % of control; (dose: 25.0 mg/kg/injection, schedule: Q01DX005 (ip), vehicle: distilled water + Tween-80) 97 % of control; (dose: 50.0 mg/kg/injection, schedule: Q01DX005 (ip), vehicle: distilled water + Tween-80) 96 % of control; (dose: 100.0 mg/kg/injection, schedule: Q01DX005 (ip), vehicle: distilled water + Tween-80) 102 % of control; (dose: 200.0 mg/kg/injection, schedule: Q01DX005 (ip), vehicle: distilled water + Tween-80) 94 % of control.

Take `CC1CC(C)(C)N=C(C2CCCC2)O1` (stereo not given): the T/C (dose: 100.0 mg/kg/injection, schedule: Q01DX001 (ip), vehicle: saline with Tween-80) was 96 % of control; the T/C (dose: 200.0 mg/kg/injection, schedule: Q01DX001 (ip), vehicle: saline with Tween-80) is 96 % of control; the T/C (dose: 400.0 mg/kg/injection, schedule: Q01DX001 (ip), vehicle: saline with Tween-80) was 100 % of control.

Regarding `CCCN(CCC)S(=O)(=O)c1ccc(NC(=O)Oc2cc(C)ccc2C(C)C)cc1`, the T/C is, setting by setting: (dose: 100.0 mg/kg/injection, schedule: Q01DX001 (ip), vehicle: saline) 100 % of control; (dose: 200.0 mg/kg/injection, schedule: Q01DX001 (ip), vehicle: saline) 95 % of control; (dose: 400.0 mg/kg/injection, schedule: Q01DX001 (ip), vehicle: saline) 94 % of control.

`CSc1cc(=O)n2c3ccccc3c3ccnc1c32`: the T/C (dose: 1.25 mg/kg/injection, schedule: Q01DX009 (ip), vehicle: saline with Tween-80) is 103 % of control; the T/C (dose: 2.5 mg/kg/injection, schedule: Q01DX009 (ip), vehicle: saline with Tween-80) was 95 % of control; the T/C (dose: 5.0 mg/kg/injection, schedule: Q01DX009 (ip), vehicle: saline with Tween-80) was 97 % of control; the T/C (dose: 10.0 mg/kg/injection, schedule: Q01DX009 (ip), vehicle: saline with Tween-80) is 110 % of control.

`CC1(c2ccccc2)C=CC(=O)CC1` (stereo not given): the T/C is 93 % of control (dose: 100.0 mg/kg/injection, schedule: Q04DX002 (ip), vehicle: saline with Tween-80); 101 % of control (dose: 200.0 mg/kg/injection, schedule: Q04DX002 (ip), vehicle: saline with Tween-80); 97 % of control (dose: 400.0 mg/kg/injection, schedule: Q04DX002 (ip), vehicle: saline with Tween-80).

As for `C=CCNC(=O)C(O)C(O)C(=O)NCC=C` (stereo not given), the T/C reads like this: (dose: 100.0 mg/kg/injection, schedule: Q01DX009 (ip), vehicle: acetone) 101 % of control; (dose: 100.0 mg/kg/injection, schedule: Q04DX003 (ip), vehicle: acetone) 98 % of control; (dose: 200.0 mg/kg/injection, schedule: Q01DX009 (ip), vehicle: acetone) 96 % of control; (dose: 200.0 mg/kg/injection, schedule: Q04DX003 (ip), vehicle: acetone) 100 % of control; (dose: 400.0 mg/kg/injection, schedule: Q01DX009 (ip), vehicle: acetone) 98 % of control; (dose: 400.0 mg/kg/injection, schedule: Q04DX003 (ip), vehicle: acetone) 112 % of control.

Turning to `CC(C)=NNS(=O)(=O)c1ccccc1`, the T/C by setting is: (dose: 12.5 mg/kg/injection, schedule: Q01DX005 (ip), vehicle: Klucel (hydroxypropylcellulose) (HPC)) 88 % of control; (dose: 25.0 mg/kg/injection, schedule: Q01DX005 (ip), vehicle: Klucel (hydroxypropylcellulose) (HPC)) 96 % of control; (dose: 50.0 mg/kg/injection, schedule: Q01DX005 (ip), vehicle: Klucel (hydroxypropylcellulose) (HPC)) 96 % of control; (dose: 100.0 mg/kg/injection, schedule: Q01DX005 (ip), vehicle: Klucel (hydroxypropylcellulose) (HPC)) 93 % of control.

For `CC[N+](CC)=c1ccc2nc3c(cc(N)c4ccccc43)oc-2c1`, the T/C was 97 % of control (dose: 6.25 mg/kg/injection, schedule: Q01DX009 (ip), vehicle: saline sonified); 101 % of control (dose: 6.25 mg/kg/injection, schedule: Q04DX003 (ip), vehicle: saline with Tween-80); 104 % of control (dose: 12.5 mg/kg/injection, schedule: Q01DX009 (ip), vehicle: saline sonified); 101 % of control (dose: 12.5 mg/kg/injection, schedule: Q04DX003 (ip), vehicle: saline with Tween-80); 98 % of control (dose: 25.0 mg/kg/injection, schedule: Q04DX003 (ip), vehicle: saline with Tween-80).

With `CC(=O)OCC1OC(n2c(Br)nc3c(=O)[nH]c(N)nc32)C(OC(C)=O)C1OC(C)=O` (stereo not given), the T/C is, setting by setting: under setting [1], 100 % of control; under setting [2], 105 % of control; under setting [3], 107 % of control.

As for `O=NN(CCCl)C(=O)NC1C(O)C(O)C(O)C(O)C1O` (stereo not given), the T/C by setting is: (dose: 13.0 mg/kg/injection, schedule: Q01DX001 (ip), vehicle: saline) 167 % of control and 220 % of control; (dose: 20.0 mg/kg/injection, schedule: Q01DX001 (ip), vehicle: saline) 173 % of control and 227 % of control; (dose: 25.0 mg/kg/injection, schedule: Q01DX001 (ip), vehicle: saline) 255 % of control; (dose: 30.0 mg/kg/injection, schedule: Q01DX001 (ip), vehicle: saline) 271 % of control and 282 % of control; (dose: 44.0 mg/kg/injection, schedule: Q01DX001 (ip), vehicle: saline) 197 % of control.

Regarding `N=c1c2cnn(C3OC(CO)C(O)C3O)c2ncn1N` (stereo not given), the T/C (dose: 6.25 mg/kg/injection, schedule: Q01DX009 (ip), vehicle: water) is 103 % of control; the T/C (dose: 12.5 mg/kg/injection, schedule: Q01DX009 (ip), vehicle: water) was 115 % of control and 112 % of control; the T/C (dose: 50.0 mg/kg/injection, schedule: Q01DX009 (ip), vehicle: water) was 91 % of control.
